The source of these data is article PMC4356640 (Pharmacogenetics and genomics, 2015).

Series [1] is described as follows: Tamoxifen and metabolite steady state plasma concentrations. Conditions: for pharmacokinetics differ by CYP2D6 genotype: 3 and 6 month visits; for 3m or 6m steady state concentrations correlated with age: p-values > 0.11.
The test system of a further series is CYP2D6 enzyme activity. Put plainly: 13C-dextromethorphan breath test. The format is in vivo, human.

Turning to `CC/C(=C(\c1ccc(O)cc1)c1ccc(OCCN(C)C)cc1)c1ccccc1` [4HT, 4-hydroxytamoxifen], in series [1], the “pharmacokinetics differ by CYP2D6 genotype” value was “Neither tamoxifen, NDMT, or 4HT pharmacokinetics were found to differ by CYP2D6 genotype” and the “3m or 6m steady state concentrations correlated with age” value is on record as “no evidence”.
Regarding `COc1ccc2c(c1)[C@]13CCCC[C@@H]1[C@H](C2)N(C)CC3` [DM, Dextromethorphan], the “correlation (r) of baseline DM-BT values with CYP2D6 genotype” value in the series on CYP2D6 enzyme activity (Spearman, p < 0.0001, n=77) turned out to be 0.55. In the series on CYP2D6 enzyme activity (Spearman, p < 0.001, n=55), the “correlation (r) of 6m DM-BT values with CYP2D6 genotype” value is given as 0.55. Moreover, the “correlation (r) of 3m DM-BT values with CYP2D6 genotype” value in the series on CYP2D6 enzyme activity (Spearman, p< 0.0001, n=60) was determined as 0.58.
For the compound `CC/C(=C(\c1ccc(O)cc1)c1ccc(OCCNC)cc1)c1ccccc1` [Endx, endoxifen], in series [1] (Spearman, p < 0.0001, n=57), the “correlation (r) of CYP2D6 genotype with 3m Endx Css” value is on record as 0.47 and the “correlation (r) of CYP2D6 genotype with 3m Endx/NDMT ratio” value amounted to 0.60. Moreover, in series [1] (Spearman, p<0.0001, n=54), the “correlation (r) of CYP2D6 genotype with 6m Endx/NDMT ratio” value was determined as 0.61 and the “correlation (r) of CYP2D6 genotype with 6 month Endx Css” value was found to be 0.56. For the same compound, the “concentrations of endoxifen, fold lower than that of Lien et al” value in series [1] (comparison with ref 14) is given as ~8 fold. The concentration at 3 months in series [1] (human, plasma, oral, 20 mg daily, Median Endx concentration (range), Endx Css, 3 months, CYP2D6 PM/PM, activity score 0, n=2) worked out at 5.5 nM. The concentration at 6 months in series [1] (human, plasma, oral, 20 mg daily, Median Endx concentration (range), Endx Css, 6 months, CYP2D6 PM/PM, activity score 0, n=2) worked out at 6.7 nM. For the same compound, the “3m or 6m steady state concentrations correlated with age” value in series [1] was “no evidence”.
For `CC/C(=C(\c1ccccc1)c1ccc(OCCNC)cc1)c1ccccc1` [NDMT, N-desmethyltamoxifen], in series [1], the “pharmacokinetics differ by CYP2D6 genotype” value is recorded as “Neither tamoxifen, NDMT, or 4HT pharmacokinetics were found to differ by CYP2D6 genotype” and the “3m or 6m steady state concentrations correlated with age” value is on record as “no evidence”.
`Fc1ccc([C@@H]2CCNC[C@H]2COc2ccc3c(c2)OCO3)cc1` [paroxetine]: the “baseline DOB30 values lower than at 3 and 6 month visits after paroxetine was discontinued” value in the series on CYP2D6 enzyme activity (one patient who took paroxetine prior to the baseline visit) is > 50%.
For the compound `CC/C(=C(\c1ccccc1)c1ccc(OCCN(C)C)cc1)c1ccccc1` [tamoxifen, Tamoxifen, reference compound], the “3m or 6m steady state concentrations correlated with age” value in series [1] is recorded as “no evidence”.
